Experimental data: the NIST ThermoML archive (doi:10.1021/je060416d)

Conditions: Liquid, Vibrating wire viscometry

C1CCCC1 [cyclopentane]
viscosity [mPa·s]
Conditions	273.15 K	293.15 K	298.15 K	313.15 K	333.15 K	353.15 K
100 kPa	0.5628	0.4413	0.4167	–	–	–
10000 kPa	0.6148	0.4827	0.4583	0.392	0.3247	–
15000 kPa	–	–	–	–	–	0.2868
30000 kPa	0.7203	0.5708	0.5409	0.4646	0.3882	0.3291
40000 kPa	0.7767	0.6167	0.5846	–	–	–
45000 kPa	–	–	–	0.5222	0.4364	0.3727
